# Experimental data taken from US20230255906A1, “Targeting Serpin B9 in Cancer” (The Brigham and Women`s Hospital, Inc., priority 2020, published 2023).
# Legend:
# [1] = tested on: B16-Sb9 KO tumors; experiment: B16-Sb9 KO tumors in Sb9 KO mice; type: in vivo, mouse; conditions: Sb9 KO mice bearing B16-Sb9 KO tumors
# Procedure: FIG. 5N. Tumor growth curve indicates no difference in antitumor effect of the compound of Formula (III) on B16-Sb9 KO tumors in Sb9 KO mice, as compared to the control group. Data are expressed as means±SEM.
# (§1) To evaluate the off-target effects of the compound of Formula (III) to Sb9 proteins, the B16-Sb9 KO melanoma cells were treated with various concentrations of the compound of Formula (III). […] Furthermore, the antitumor effects of the compound of Formula (III) on the Sb9 KO mice bearing B16-Sb9 KO tumors, as compared to control group were not observed (FIG. 5N).
# [2] = tested on: LAMP1; experiment: LAMP1 / lysosome fluorescence micrographs; type: cell-based
# Source text: FIG. 4H. […] DAPI was used to counterstain the cell nuclei. Scale bar: 10 μm.
# Lysosomes have a pH of 4 and are the most acidic compartment within cells. Therefore, it was hypothesized that lysosomes contain an environment that is conducive for the binding between the compound of Formula (III) and Sb9. Both Sb9 and GrB were co-localized in the lysosomes of B16 melanoma cells (FIG. 4F).
# [3] = tested on: B16 melanoma cells; experiment: Caspase-3 activity assay (EnzChek Caspase-3 Assay Kit), caspase-3 induction in tumor cells; type: cell-based, mouse; conditions: 200 μM
# Summary of the method: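 B16 melanoma cells exposed to compounds for 24 h, lysed on ice 30 min, and lysate incubated with Z-DEVD-R110 substrate about 30 min at room temperature. Fluorescence read at ~496/520 nm against untreated-cell and no-enzyme controls; caspase-3 induction serves as surrogate for GrB activity from Sb9 inhibition.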
# [4] = tested on: GrB; experiment: Grantoxilux assay of GrB activity in B16 cells; type: cell-based, mouse; conditions: 200 μM, 24 h
# [5] = tested on: B16-Sb9 KO melanoma cells; experiment: Apoptosis by flow cytometry (Annexin-V, viability dye) in Sb9 knockout cells; type: cell-based, mouse; conditions: 50 μM, 100 μM, and 200 μM
# Procedure: FIG. 5M. […] Cells treated with PBS alone were used as a negative control. Data are expressed as means±SD from three independent experiments.
# as §1
# [6] = tested on: RENCA mouse kidney tumors; experiment: RENCA kidney tumor model in BALB/c mice; type: in vivo; conditions: 300 μg i.p. bid for 21 days
# Source text: FIGS. 6N-6O. […] Data are expressed as means±SEM. *P<0.05, **P<0.01 (Student's t-test). Mean survival time (MST) is increased in mice treated with the compound of Formula (III) as compared to Control group (FIG. 6O).
# Furthermore, similar antitumor effects and increased MST using the compound of Formula (III) in two other in vivo tumor models were observed: Renca renal cell carcinoma and LLC1 lung cancer (FIGS. 6M-6Q). Thus, inhibition of Sb9 by the compound of Formula (III) has potent anti-tumor effects in a broad spectrum of tumors, including melanomas as well as breast, lung, and kidney tumors.
# [7] = tested on: A375 human melanoma; experiment: A375 human melanoma tumors in NSG mice; type: in vivo, mouse; conditions: 300 μg i.p. bid for 14 days
# Procedure: FIGS. 10D-10E. […] Data are expressed as means±SEM. *P<0.05 (Student's t-test). Mean survival time (MST) is increased in mice treated with the compound of Formula (III) as compared to Control group (FIG. 10E).
# Mice were anesthetized with isoflurane, and tumor cell lines (B16, A375, and 4T1) were gently injected subcutaneously in the flanks or mammary glands of mice. One hundred thousand cells (1×10^5 cells) were injected per mouse for most of the experiments. However, twenty-five thousand cells (25×10^3 cells) were injected per mouse for the experiments using the compound of Formula (III). Upon 4 hrs post-implantation, 300 μg of the compound of Formula (III) was administered twice a day intraperitoneally for 14 days. Tumor growth was monitored three times per week by digital caliper (Fisherbrand™ Traceable™ Digital Calipers).
# To assess if the anti-tumor effects of the compound of Formula (III) were generalizable to human diseases, the efficacy in an NSG humanized mouse model of A375 human melanoma was also tested. […] Thus, the compound of Formula (III) can inhibit Sb9 in melanoma tumor cells and render them susceptible to GrB-mediated apoptosis.
structure (smiles),measurement,setting,value
"O=C(O)c1ccc2ncoc2c1 [Formula (III), 1,3-benzoxazole-6-carboxylic acid]",antitumor effects vs control group,[1],not observed
same,LAMP1 expression and lysosome areas,[2],significantly increased the LAMP1 expressions
same,"increase in caspase-3 activity compared to 3,4-dihydroxybenzoic acid",[3]; 24 h,~4 fold
same,GrB-mediated apoptosis (caspase-3 activity),[3]; GrB inhibitor (368050) 10 μM,induced GrB-mediated apoptosis
same,activity of GrB,[4],increased activity of GrB
same,additional apoptosis in Sb9 knockout cells (off-target),[5],No additional apoptotic effect
same,Mean survival time (MST) vs Control,[6],increased
same,tumor growth vs control,[6]; male BALB/c mice,significantly slower growth
same,MST vs control,[7],increased MST
same,reduction of size of human melanoma tumors vs controls,[7],2.1 fold
